Patent publication US4727080A, “1-substituted derivatives of 6-fluoro-7-(pyrrol-1-yl)-1,4-dihydro-4-oxoquinoline-3-carboxylic acid, their preparation and their application as drugs” (Provesan S.A., priority 1984, dated 1988)
In brackets after ≈: the same amount, converted by molar mass. Where two headings read alike, the source gives them in different places.

Tests used:
[1] = system: Bacillus subtilis ATCC 6633; test: "In vitro" MIC, Bacillus subtilis; assay type: cell-based; conditions: read-out: "In vitro" MIC
Procedure: (§1) Antimicrobial pharmacological activity (G. L. Daquet and Y. A. Chabbect, Techniques en bacteriologie (Techniques in bacteriology), vol. 3, Flammarion Medecine-Sciences, Paris, 1972, and W. B. Hugo and A. D. Rusell, Pharmaceutical Microbiology, Blackwell Scientific Publications, London (1977).
Bacillus subtilis ATCC 6633
(§2) A streak culture of each of the microorganisms is formed in tubes of antibiotics agar no. 1 and incubated for 20 hours at 37° C. A culture loop is then taken and a culture is formed in a tryptone-soya broth and incubated for 20 hours at 37° C. The resulting culture is diluted to 1/4 with Ringer's physiological solution to give a standardized suspension of 10^5 ufc/ml for each organism.
(§3) Starting from a solution of 1000 μg/ml in 0.1N NaOH, each product is diluted successively in dextrose agar (melted beforehand and kept at 50° C.) to give the following concentrations: 64-32-16-8-4-2-1-0.5-0.25-0.125 μg of derivative/ml of medium.
(§4) After this, each concentration of each product is divided up into Petri dishes of 10 cm diameter at a rate of 10 ml of medium per dish and using as many dishes as there are microorganisms to be tested.
(§5) Once the medium has cooled, the dishes are treated with the inoculations at a rate of 0.4 ml of inoculation per dish. They are spread out with a Drigalski loop and the supernatant is collected. The inoculated dishes are incubated at 37° C. for 20 hours.

[2] = system: Micrococcus flavus ATCC 10240; test: "In vitro" MIC, Micrococcus flavus; assay type: cell-based; conditions: read-out: "In vitro" MIC
Procedure: as §1
Micrococcus flavus ATTC 10240
as §2, §3, §4, §5

Sarcina lutea ATCC 9341 = test: "In vitro" MIC, Sarcina lutea; assay type: cell-based; conditions: Micrococcus luteus, read-out: "In vitro" MIC
Procedure: as §1, §2, §3, §4, §5

[3] = system: Staphylococcus aureus ATCC 5488/23; test: "In vitro" MIC, Staphylococcus aureus ATCC 5488/23; assay type: cell-based; conditions: read-out: "In vitro" MIC
Procedure: as §1
Staphylococcus aureus ATCC 5488/23
as §2, §3, §4, §5

[4] = system: Staphylococcus aureus ATCC 25178; test: "In vitro" MIC, Staphylococcus aureus ATCC 25178; assay type: cell-based; conditions: read-out: "In vitro" MIC
Procedure: as §1
Staphylococcus aureus ATCC 25178
as §2, §3, §4, §5

[5] = system: Streptococcus faecalis ATCC 10541; test: "In vitro" MIC, Streptococcus faecalis; assay type: cell-based; conditions: Enterococcus faecalis, read-out: "In vitro" MIC
Procedure: as §1
Streptococcus faecalis ATCC 10541
as §2, §3, §4, §5

[6] = system: Enterobacter aerogenes ATCC 15038; test: "In vitro" MIC, Enterobacter aerogenes; assay type: cell-based; conditions: Klebsiella aerogenes, read-out: "In vitro" MIC
Procedure: as §1
Enterobacter aerogenes ATCC 15038
as §2, §3, §4, §5

[7] = system: Enterobacter cloacae CHSP-20; test: "In vitro" MIC, Enterobacter cloacae; assay type: cell-based; conditions: read-out: "In vitro" MIC
Procedure: as §1
Enterobacter cloacae CHSP-20
as §2, §3, §4, §5

[8] = system: Escherichia coli ATCC 10536; test: "In vitro" MIC, Escherichia coli ATCC 10536; assay type: cell-based; conditions: read-out: "In vitro" MIC
Procedure: as §1
Escherichia coli ATCC 10536
as §2, §3, §4, §5

Escherichia coli R-1513 = test: "In vitro" MIC, Escherichia coli R-1513; assay type: cell-based; conditions: read-out: "In vitro" MIC
Procedure: as §1, §2, §3, §4, §5

[9] = system: Klebsiella pneumoniae ATCC 10031; test: "In vitro" MIC, Klebsiella pneumoniae; assay type: cell-based; conditions: read-out: "In vitro" MIC
Procedure: as §1
Klebsiella pneumoniae ATCC 10031
as §2, §3, §4, §5

[10] = system: Citrobacter freundii ATCC 11606; test: "In vitro" MIC, Citrobacter freundii; assay type: cell-based; conditions: read-out: "In vitro" MIC
Procedure: as §1
Citrobacter freundii ATCC 11606
as §2, §3, §4, §5

[11] = system: Proteus mirabilis ATCC 4675; test: "In vitro" MIC, Proteus mirabilis; assay type: cell-based; conditions: read-out: "In vitro" MIC
Procedure: as §1
Proteus mirabilis ATCC 4675
as §2, §3, §4, §5

Proteus morganii CHSP-16 = test: "In vitro" MIC, Proteus morganii; assay type: cell-based; conditions: Morganella morganii, read-out: "In vitro" MIC
Procedure: as §1, §2, §3, §4, §5

[12] = system: Pseudomonas aeruginosa 25115; test: "In vitro" MIC, Pseudomonas aeruginosa 25115; assay type: cell-based; conditions: read-out: "In vitro" MIC
Procedure: as §1
Pseudomonas aeruginosa 25115
as §2, §3, §4, §5

[13] = system: Pseudomonas aeruginosa ADSA 47; test: "In vitro" MIC, Pseudomonas aeruginosa ADSA 47; assay type: cell-based; conditions: read-out: "In vitro" MIC
Procedure: as §1
Pseudomonas aeruginosa ADSA 47
as §2, §3, §4, §5

[14] = system: Salmonella typhimurium AMES 98; test: "In vitro" MIC, Salmonella typhimurium AMES 98; assay type: cell-based; conditions: Salmonella enterica, read-out: "In vitro" MIC
Procedure: as §1
Salmonella typhimurium AMES 98
as §2, §3, §4, §5

[15] = system: Salmonella typhimurium AMES 100; test: "In vitro" MIC, Salmonella typhimurium AMES 100; assay type: cell-based; conditions: Salmonella enterica, read-out: "In vitro" MIC
Procedure: as §1
Salmonella typhimurium AMES 100
as §2, §3, §4, §5

[16] = system: Serratia marcescens ATTC 13880; test: "In vitro" MIC, Serratia marcescens; assay type: cell-based; conditions: read-out: "In vitro" MIC
Procedure: as §1
Serratia marcescens ATTC 13880
as §2, §3, §4, §5

Shigella flexnerii = test: "In vitro" MIC, Shigella flexnerii; assay type: cell-based; conditions: 20 h, read-out: "In vitro" MIC
Procedure: as §1, §2, §3, §4, §5

Acute toxicity to mice = conditions: mouse, in vivo, ip, suspension in 5% gum arabic, mortality over 7 days
Procedure: The experimental animals used to determine this toxicity were albino mice of the C.F.L.P. strain and of both sexes, weighing between 19 and 25 grams. After an 18-hour fasting period with water "ad libitum", the derivatives forming the subject of the present invention are administered intraperitoneally as a suspension in 5% gum arabic. The volume of suspension administered was 0.4 ml/20 grams (20 ml/kg) in all cases, the concentration of the suspension being changed according to the dose administered.
One hour after administration of the derivatives, the animals are given a standard Panlab rat-mouse food. The mortality was observed over a period of 7 days. Differences in mortality between the sexes were not observed with any of the products.

[17] = system: Enterobacteriaceae (Pseudomonas aeruginosa); test: "In vitro" antimicrobial activity compared with nalidixic acid, Enterobacteriaceae (Pseudomonas aeruginosa); assay type: cell-based
Procedure: as §1, §2, §3, §4, §5

Gram-positive cocci = test: "In vitro" antimicrobial activity compared with nalidixic acid, Gram-positive cocci; assay type: cell-based
Procedure: as §1, §2, §3, §4, §5

In the case of `CCn1cc(C(=O)O)c(=O)c2ccc(C)nc21` [Nalidixic acid, reference compound], the MIC ([1]; Bacillus subtilis, ATCC6633, 20 h) was 1 µg/mL (≈ 4.31 µM), the MIC ([2]; Micrococcus flavus, ATCC10240, 20 h) was 128 µg/mL (≈ 551 µM) and the MIC (Sarcina lutea ATCC 9341; ATCC9341, 20 h) was 128 µg/mL (≈ 551 µM). For the same compound, the MIC ([3]; Staphylococcus aureus, ATCC5488, 20 h) was 32 µg/mL (≈ 138 µM), the MIC ([4]; Staphylococcus aureus, ATCC25178, 20 h) was at least 64 µg/mL and the MIC ([5]; ATCC10541, 20 h) was at least 64 µg/mL. The MIC ([6]; ATCC15038, 20 h) was 4 µg/mL (≈ 17.2 µM), the MIC ([7]; Enterobacter cloacae, CHSP20, 20 h) was 4 µg/mL (≈ 17.2 µM) and the MIC ([8]; Escherichia coli, ATCC10536, 20 h) was 0.25 µg/mL (≈ 1.08 µM). For the same compound, the MIC (Escherichia coli R-1513; Escherichia coli, R1513, 20 h) was 4 µg/mL (≈ 17.2 µM), the MIC ([9]; Klebsiella pneumoniae, ATCC10031, 20 h) was 1 µg/mL (≈ 4.31 µM) and the MIC ([10]; Citrobacter freundii, ATCC11606, 20 h) was 4 µg/mL (≈ 17.2 µM). For the same compound, the MIC ([11]; Proteus mirabilis, ATCC4675, 20 h) was 8 µg/mL (≈ 34.4 µM), the MIC (Proteus morganii CHSP-16; CHSP16, 20 h) was 1 µg/mL (≈ 4.31 µM) and the MIC ([12]; Pseudomonas aeruginosa, 25115, 20 h) was at least 128 µg/mL. For the same compound, the MIC ([13]; Pseudomonas aeruginosa, ADSA47, 20 h) was at least 128 µg/mL, the MIC ([14]; TYPHIMURIUM, 20 h) was 0.5 µg/mL (≈ 2.15 µM) and the MIC ([15]; TYPHIMURIUM, 20 h) was 0.5 µg/mL (≈ 2.15 µM). It also gave an MIC ([16]; Serratia marcescens, ATTC13880, 20 h) of 1 µg/mL (≈ 4.31 µM) and an MIC (Shigella flexnerii) of 2 µg/mL (≈ 8.61 µM).

With `O=C(O)c1cn(CCF)c2cc(-n3cccc3)c(F)cc2c1=O` [Example 6, 6-fluoro-7-(pyrrol-1-yl)-1-fluoroethyl-4-oxo-1,4-dihydroquinoline-3-carboxylate acid] the MIC ([1]; ATCC6633, Bacillus subtilis ATCC 6633, dextrose agar, 37° C., 20 hours) was at most 0.031 µg/mL, the MIC ([2]; ATCC10240, Micrococcus flavus ATCC 10240, dextrose agar, 37° C., 20 hours) was 1 µg/mL (≈ 3.14 µM) and the MIC (Sarcina lutea ATCC 9341; ATCC9341, Sarcina lutea ATCC 9341, dextrose agar, 37° C., 20 hours) was 2 µg/mL (≈ 6.28 µM). For the same compound, the MIC ([3]; ATCC5488, Staphylococcus aureus ATCC 5488/23, dextrose agar, 37° C., 20 hours) was 0.062 µg/mL (≈ 0.195 µM), the MIC ([4]; ATCC25178, Staphylococcus aureus ATCC 25178, dextrose agar, 37° C., 20 hours) was 0.062 µg/mL (≈ 0.195 µM) and the MIC ([5]; ATCC10541, Streptococcus faecalis ATCC 10541, dextrose agar, 37° C., 20 hours) was 0.5 µg/mL (≈ 1.57 µM). It also gave an MIC ([6]; ATCC15038, Enterobacter aerogenes ATCC 15038, dextrose agar, 37° C., 20 hours) of 1 µg/mL (≈ 3.14 µM), an MIC ([7]; CHSP20, Enterobacter cloacae CHSP-20, dextrose agar, 37° C., 20 hours) of 0.5 µg/mL (≈ 1.57 µM) and an MIC ([8]; ATCC10536, Escherichia coli ATCC 10536, dextrose agar, 37° C., 20 hours) of at most 0.031 µg/mL. For the same compound, the MIC (Escherichia coli R-1513; R1513, Escherichia coli R-1513, dextrose agar, 37° C., 20 hours) was 0.5 µg/mL (≈ 1.57 µM), the MIC ([9]; ATCC10031, Klebsiella pneumoniae ATCC 10031, dextrose agar, 37° C., 20 hours) was 0.062 µg/mL (≈ 0.195 µM) and the MIC ([10]; ATCC11606, Citrobacter freundii ATCC 11606, dextrose agar, 37° C., 20 hours) was 1 µg/mL (≈ 3.14 µM). It also gave an MIC ([11]; ATCC4675, Proteus mirabilis ATCC 4675, dextrose agar, 37° C., 20 hours) of 1 µg/mL (≈ 3.14 µM), an MIC (Proteus morganii CHSP-16; CHSP16, Proteus morganii CHSP-16, dextrose agar, 37° C., 20 hours) of 0.5 µg/mL (≈ 1.57 µM) and an MIC ([12]; Pseudomonas aeruginosa 25115, dextrose agar, 37° C., 20 hours) of 4 µg/mL (≈ 12.6 µM). For the same compound, the MIC ([13]; ADSA47, Pseudomonas aeruginosa ADSA 47, dextrose agar, 37° C., 20 hours) was 16 µg/mL (≈ 50.3 µM), the MIC ([14]; Salmonella typhimurium AMES 98, dextrose agar, 37° C., 20 hours) was at most 0.031 µg/mL and the MIC ([15]; Salmonella typhimurium AMES 100, dextrose agar, 37° C., 20 hours) was 0.25 µg/mL (≈ 0.785 µM). For the same compound, the MIC ([16]; ATTC13880, Serratia marcescens ATTC 13880, dextrose agar, 37° C., 20 hours) was 1 µg/mL (≈ 3.14 µM), the MIC (Shigella flexnerii) was 1 µg/mL (≈ 3.14 µM) and the LD50 at 168 h (Acute toxicity to mice) was over 1600 mg/kg. For the same compound, the “"in vitro" activity compared with nalidixic acid” value [17] was “greater "in vitro" activity than nalidixic acid” and the “"in vitro" activity compared with nalidixic acid” value (Gram-positive cocci) was “greater "in vitro" activity than nalidixic acid”.
